In one assay the target is T1, WT PNP/Pi complex (Escherichia coli, UniProt P0ABP8).
T1 construct: made in house
The assay is described as follows: Calorimetric (ITC) titrations with formycin A. Details: species or system E. coli. Here is the method: (§1) The isothermal titration experiments were performed on the MicroCal iTC200 (Malvern) microcalorimeter. […] All experiments were carried out at 25°C. For the WT protein series of three calorimetric titrations, with protein concentration in the range of 70 to 800 μM, for the Y160W mutant series of four titration with protein concentration in the range of 300 μM to 1.3 mM were performed. Samples of each protein used for these series came from a single preparation. Ligand samples were 8–12 times more concentrated than the protein sample, in order to achieve a diverse ligand/protein molar ratio during titration and thus better explore binding curves. In some ITC experiments, in order to sample the lower plateau region more accurately, several initial points were measured with less ligand volume added at each step than used in the subsequent titration points measurements. An example of the ITC data is shown in the Supplementary Information (Figure S6). Raw thermograms were analysed with NITPIC[43]. Global analysis of titration curves was performed with Sedphat[20],[21].
(§2) Three models were taken into account in analysis of binding curves: model with one (first equation below), two (first two equations) and three binding sites. P+L⇔PLwithKd1PL+L⇔PLLwithKd2PLL+L⇔PLLLwithKd3
(§3) The model with one binding site is based on the assumption that all monomers are equivalent, and there is no cooperation between them. In the model with two binding sites the basic functional unit of the protein is a dimer, possible non-equivalence of binding sites or cooperativity between active sites in the dimer are taken into account (in the case of no cooperativity dissociation constants should be related statistically: Kd2 = 4Kd1), the dimers within hexamer are equivalent. The model with three binding sites is based on the crystallographic structures of binary and ternary complexes of PNP with ligands, where two of the dimers are in the “open-closed” conformation, but the third dimer is symmetrical, in the “open-open” conformation. Thus, active sites in the open conformation belonging to “open-closed” and “open-open” dimer may not be equivalent. This model takes into account possibility of cooperation between all monomers within a hexameric molecule of the protein (in the case of no cooperativity dissociation constants should be related statistically: Kd3 = 9Kd1, Kd2 = 3Kd1).
(§4) Titration series were analysed globally, always starting from the simplest, one-binding-site model. […] For all tested models the Akaike information criterion[23] was also calculated. Generally both criteria used in the discrimination analysis were pointing the same model as best describing the data. The only exception was thermophoretic titration of the WT protein with formycin A, and it is described in details in the Results. Analysed models were fitted to the raw data, whereas graphs presented in this study were prepared from the normalised data and the fitted curves. The parameters of the fit are dissociation constants and responses of the system. Responses are defined as changes in a measured physical quantity related to the formation of subsequent protein–ligand complexes: intrinsic protein fluorescence intensity, fluorescence intensity of the dye, heat and ellipticity for fluorimetric, thermophoretic, calorimetric and CD titrations, respectively. Responses are normalised for the protein concentration present in the titration, thus giving molar coefficients.

The next assay addresses T2, Y160W mutant/Pi complex (Escherichia coli, UniProt P0ABP8, Y161W).
T2 construct: made in house; host or cells: E. coli DH5α-T1
The assay is described as follows: Calorimetric (ITC) titrations with formycin A. Details: species or system E. coli. As for the experimental part: as §1, §2, §3, §4

A further assay has as its target Y160W PNP mutant (Escherichia coli, UniProt P0ABP8, Y161W). The conditions noted are these: phosphate as variable substrate, 0.4 mM m^7Guo, allostery Eq. (2). As for the experimental part:
Activity measurements were performed for each protein sample, before and after each experiment as a control of the state of the protein.
The classical Michaelis–Menten equation was fitted to the kinetic curves (i.e. initial rate of the reaction, v0, vs. initial substrate concentration, c0):1 v0c0=Vmax1c0/c0+KM1
Coefficients a and b express the degree of cooperation between the subunits in a dimer, while constants KM1 and Vmax1 characterize the active sites of the enzyme when the neighbouring site is free.
A more complex model was used if there was a statistically significant decrease in the residual sum of squares as judged by the F test at 95% confidence level.

Where two headings read alike, the source gives them in different places.

A word on the Km: it is the substrate concentration at which the rate is half of its maximum.

As to `Nc1ncnc2c([C@@H]3O[C@H](CO)[C@@H](O)[C@H]3O)[nH]nc12` [FA, Formycin A], the Kd at WT PNP/Pi complex (Kd1 ± SD, three-binding-site model, 50 mM phosphate, pH 7.6, 25 °C, values to be treated as estimates) was 8.9 µM; on WT PNP/Pi complex (Kd3 ± SD, three-binding-site model, 50 mM phosphate, pH 7.6, 25 °C, values to be treated as estimates), 812 µM; on WT PNP/Pi complex (read-out: Kd2 ± SD, three-binding-site model, 50 mM phosphate, pH 7.6, 25 °C, values to be treated as estimates), 55 µM; on Y160W mutant/Pi complex (Kd1 ± SD, three-binding-site model, 50 mM phosphate, pH 7.6, 25 °C), 6.75 µM; on Y160W mutant/Pi complex (Kd3 ± SD, three-binding-site model, 50 mM phosphate, pH 7.6, 25 °C) it was 655 µM; on Y160W mutant/Pi complex (read-out: Kd2 ± SD, three-binding-site model, 50 mM phosphate, pH 7.6, 25 °C), 149 µM.

For `O=P(O)(O)O` [Pi, Orthophosphate], on Y160W PNP mutant, the “a (cooperativity coefficient, KM2 = aKM1)” value is given as 390 ± 122 and the “b (cooperativity coefficient, Vmax2 = bVmax1)” value is recorded as 0.94 ± 0.05. Further, on Y160W PNP mutant (pH 7.0, 25 °C), the Km came to 18.7 ± 2.7 µM and the Vmax is given as 11.7 ± 0.4 U/mg.

The values are drawn from article PMC8160210, “Single tryptophan Y160W mutant of homooligomeric E. coli purine nucleoside phosphorylase implies that dimers forming the hexamer are functionally not equivalent” (Scientific Reports, 2021).
